Results on 29 molecules are retold here after patent US20260055108A1, “TRIAZINE COMPOUNDS AND USES THEREOF” (HUTCHMED LIMITED, priority 2022, published 2026).

pIC50: −log10 of the molar value. Like-named read-outs stand apart in the source and are kept apart here.

For test [1], the target named is Recombinant human Menin protein (2-610) / MLL polypeptide binding (Homo sapiens (Human), UniProt O00255). In words: Menin and MLL protein binding at a molecular level (fluorescence polarization method). Conditions: inhibition of Menin / MLL polypeptide binding. An excerpt:
Example 3: Determination of the Activity of the Compounds of the Present Invention on Menin and MLL Protein Binding at a Molecular Level (Fluorescence Polarization Method)
1. Reagents, Materials and Instruments:
• Recombinant human Menin protein (2-610): ChemPartner, CP2021020801; • MLL polypeptide (6-FAM-Ahx-SG-40): GL Biochem, 865700; • Trizma® hydrochloride buffer solution (Tris): Sigma, T2194-1 L; • NaCl: Invitrogen, AM9760G; • TCEP: Sigma, 646547; • DMSO: Sigma, D4540; • 384-well plate: Corning, 4514; • Envision: PerkinElmer.
2. Preparation of Reaction Solutions
• 1) Buffer solution: 20 mL of Tris and 4 mL of NaCl were added respectively to 376 mL of ddH2O, with pH adjusted to 7.5, and TCEP was added before testing with a dilution ratio of 1:500. • 2) 5× test compounds: the test compound was subjected to gradient dilution with the buffer solution to 5-fold the reaction concentration, so that the final concentrations of the compound were 1.000, 0.333, 0.111, 0.037, 0.012, 0.004, 0.001 and 0.0005 μM, respectively. • 3) 2.5× Menin protein reaction solution: the Menin protein was diluted to 5 nM with the buffer solution. • 4) 2.5×MLL polypeptide reaction solution: the MLL polypeptide was diluted to 5 nM with the buffer solution.
1) Binding Reaction (20 μL System)
4 μL of 5× test compound was added to each reaction well of the 384-well plate, and the corresponding volume of 10% DMSO was added to the control wells. Except the control wells, 8 μL of Menin protein reaction solution was added to each well. The reaction solution was incubated at room temperature for 30 minutes, and then 8 μL of MLL polypeptide reaction solution was added to each well. The final concentrations of DMSO in the test compound wells and control wells were all 2%. The 384-well plate was sealed and incubated at room temperature for 30 minutes in the dark.
Three control groups were set up: • a blank control group only containing a buffer solution; • a negative control group only containing MLL polypeptide reaction solution; and • a positive control group containing Menin protein reaction solution and MLL polypeptide reaction solution.
The vertical polarization S value and the horizontal polarization P value (excitation wavelength was 480 nm, and emission wavelength was 535 nm) were measured with Envision.
Corrected S is the S value of the negative control group—the S value of the blank control group
Corrected P is the P value of the negative control group—the P value of the blank control group
(§1) • calculated by using software XL-Fit™ (version 5.3) supplied by ID Business Solutions (Guildford, UK), which is an additional software to Microsoft Excel.
In general terms: Fluorescence polarisation rises when a labelled molecule tumbles more slowly, as on binding a larger partner.

In test [2] the test system is MV-4-11 cells (human acute myelogenous leukemia cell line carrying MLL-AF4 mutation). In words: Cell proliferation assay, MV-4-11 (CellTiter-Glo). The format is cell-based. The conditions noted are these: Homo sapiens, MV4-11, 72 h. The protocol:
Example 4 Cell Proliferation Assay
MV-4-11 (ATCC, CRL-9591), a human acute myelogenous leukemia cell line carrying MLL-AF4 mutation. Cells were cultured in an IMDM medium containing 10% heat-inactivated fetal bovine serum (HIFBS) and supplemented with 50 μM β-mercaptoethanol.
2. Reagents, Materials and Instruments:
• IMDM culture solution: GIBCO, 12440-053; • HIFBS: GIBCO, 10100-147; • β-mercaptoethanol: Sigma, M3148; • CellTiter-Glo® 2.0 assay kit (CTG): Promega, G9243; • DMSO: Sigma, D4540; • 96-well cell culture plate: Corning, 3903; • Envision: PerkinElmer.
MV-4-11 cells were resuspended in a medium, added to a 96-well plate at a density of 3000 cells/well with a volume of 100 μL/well, and cultured in a cell incubator at 5% CO2 and 37° C. for 4 hours. The test compound subjected to gradient dilution with the medium was added to a cell culture plate, and the final concentrations of the compound were 1.100, 0.367, 0.122, 0.041, 0.014, 0.005, 0.002 and 0.001 μM, respectively. The corresponding volume of DMSO diluent was added to a blank control well, and the final concentrations of DMSO in the experimental group and control group were both 0.1%. The cell plate was placed in a cell incubator at 5% CO2 and 37° C. and cultured for 3 days.
On day 0 and day 3 of the treatment, 50 μL/well CTG reagent was added to the cell plate and shaken at room temperature in the dark for 10 min, and then the chemiluminescence value of each well was measured with Envision.
[formula] • wherein: • luminescence valuetest sample: the chemiluminescence value of a cell well treated with the test compound for 3 days. • luminescence valueday 0: the chemiluminescence value of a cell well at day 0. • luminescence valuecell well: the chemiluminescence value of a cell well not treated with the compound for 3 days.
as §1
For orientation: Cellular ATP, detected with luciferase, serves as a proxy for viable cell number.

[3] abbreviates: MV-4-11 cells, 3 days treatment, CellTiter-Glo, read-out: GI50.

Recombinant human Menin protein (2-610) / MLL polypeptide binding, sequence (O00255 2-610): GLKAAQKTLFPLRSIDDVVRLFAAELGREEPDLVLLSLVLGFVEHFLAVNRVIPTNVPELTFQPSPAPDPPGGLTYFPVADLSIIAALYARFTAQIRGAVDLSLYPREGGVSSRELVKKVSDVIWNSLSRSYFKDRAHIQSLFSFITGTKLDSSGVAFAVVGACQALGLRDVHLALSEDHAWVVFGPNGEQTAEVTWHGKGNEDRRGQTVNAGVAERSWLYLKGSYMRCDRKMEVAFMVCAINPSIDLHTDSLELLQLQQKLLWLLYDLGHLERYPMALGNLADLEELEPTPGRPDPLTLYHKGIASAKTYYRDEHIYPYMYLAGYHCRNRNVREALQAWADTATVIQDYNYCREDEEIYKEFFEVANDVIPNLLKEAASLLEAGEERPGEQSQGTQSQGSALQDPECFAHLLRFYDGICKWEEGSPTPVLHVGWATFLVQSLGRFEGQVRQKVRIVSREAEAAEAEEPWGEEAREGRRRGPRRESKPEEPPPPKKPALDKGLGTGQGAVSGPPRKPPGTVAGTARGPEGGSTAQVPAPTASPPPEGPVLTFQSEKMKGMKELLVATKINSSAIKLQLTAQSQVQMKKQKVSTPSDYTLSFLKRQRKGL

As for `CCN(C(=O)c1cc(F)ccc1Oc1nncnc1N1CC2(CCN(CC3CCN(C(=O)C4CC4)CC3)CC2)C1)C(C)C` [Compound 1, 2-((5-(7-((1-(cyclopropanecarbonyl)piperidin-4-yl)methyl)-2,7-diazaspiro[3.5]nonan-2-yl)-1,2,4-triazin-6-yl)oxy)-N-ethyl-5-fluoro-N-isopropylbenzamide], the negative-log IC50 (pIC50) in test [1] is 7.87. Further, the 50% growth inhibitory concentration (GI50) in test [2] (setting [3]) is 43 nM.

For the molecule `CCN(C(=O)c1cc(F)ccc1Oc1nncnc1N1CC2(CCN(CC3CCN(C(=O)C4(C(F)(F)F)CC4)CC3)CC2)C1)C(C)C` [Compound 2], the negative logarithm of the IC50 (pIC50) in test [1] was 7.52. For the same molecule, in test [2] (setting [3]), the GI50 was 39 nM.

Regarding `CCN(C(=O)c1cc(F)ccc1Oc1nncnc1N1CC2(CCN(CC3CCN(C(=O)C4CCC4)CC3)CC2)C1)C(C)C` [Compound 3], in test [1], the pIC50 was 8.62. The GI50 in test [2] (setting [3]) is 31 nM.

Turning to `CCN(C(=O)c1cc(F)ccc1Oc1nncnc1N1CC2(CCN(CC3CCN(C(=O)C4CC(C)(C)C4)CC3)CC2)C1)C(C)C` [Compound 4], the negative logarithm of the IC50 (pIC50) in test [1] is 8.49. Besides, in test [2] (setting [3]), the GI50 is 8 nM.

Regarding `CCN(C(=O)c1cc(F)ccc1Oc1nncnc1N1CC2(CCN(CC3CCN(C(=O)C4COC4)CC3)CC2)C1)C(C)C` [Compound 5], the pIC50 in test [1] is 7.67. In addition, the GI50 in test [2] (setting [3]) was determined as 58 nM.

As to `CCN(C(=O)c1cc(F)ccc1Oc1nncnc1N1CC2(CCN(CC3CCN(C(=O)C4CC(F)(F)C4)CC3)CC2)C1)C(C)C` [Compound 6], the pIC50 in test [1] was 8.17. In addition, the GI50 in test [2] (setting [3]) turned out to be 13 nM.

For the molecule `CCN(C(=O)c1cc(F)ccc1Oc1nncnc1N1CC2(CCN(CC3CCN(C(=O)CNC4CC4)CC3)CC2)C1)C(C)C` [Compound 7], the pIC50 in test [1] is 7.30. For the same molecule, the GI50 in test [2] (setting [3]) was found to be 80 nM.

Take `CCN(C(=O)c1cc(F)ccc1Oc1nncnc1N1CC2(CCN(CC3CCN(C(=O)C4(OC)CC4)CC3)CC2)C1)C(C)C` [Compound 8]: the pIC50 in test [1] was 7.46. Besides, in test [2] (setting [3]), the GI50 was found to be 86 nM.

For `CCN(C(=O)c1cc(F)ccc1Oc1nncnc1N1CC2(CCN(CC3CCN(C(=O)COC)CC3)CC2)C1)C(C)C` [Compound 9], in test [1], the pIC50 was 7.42. In test [2] (setting [3]), the GI50 stood at 99 nM.

Consider `CCN(C(=O)c1cc(F)ccc1Oc1nncnc1N1CC2(CCN(CC3CCN(C(=O)C(C)O)CC3)CC2)C1)C(C)C` (stereo not shown) [Compound 10], for which the pIC50 in test [1] is 7.38. Moreover, the GI50 in test [2] (setting [3]) stood at 187 nM.

For the molecule `CCN(C(=O)c1cc(F)ccc1Oc1nncnc1N1CC2(CCN(CC3CCN(C(=O)C4(O)CC4)CC3)CC2)C1)C(C)C` [Compound 11], the pIC50 in test [1] is 8.29. For the same molecule, in test [2] (setting [3]), the GI50 is 20 nM.

For the molecule `CCN(C(=O)c1cc(F)ccc1Oc1nncnc1N1CC2(CCN(CC3CCN(C(=O)C4(C#N)CC4)CC3)CC2)C1)C(C)C` [Compound 12], the pIC50 in test [1] was 7.70. Further, the 50% growth inhibitory concentration (GI50) in test [2] (setting [3]) came to 36 nM.

Consider `CCN(C(=O)c1cc(F)ccc1Oc1nncnc1N1CC2(CCN(CC3CCN(C(=O)CC#N)CC3)CC2)C1)C(C)C` [Compound 13], for which, in test [1], the negative-log IC50 (pIC50) is 7.84. Also, the GI50 in test [2] (setting [3]) was determined as 20 nM.

`CCN(C(=O)c1cc(F)ccc1Oc1nncnc1N1CC2(CCN(CC3CCN(C(=O)c4ccccc4F)CC3)CC2)C1)C(C)C` [Compound 14]: in test [1], the negative logarithm of the IC50 (pIC50) was 7.53. In test [2] (setting [3]), the GI50 was 27 nM.

In the case of `CCN(C(=O)c1cc(F)ccc1Oc1nncnc1N1CC2(CCN(CC3CCN(C(=O)c4ccccn4)CC3)CC2)C1)C(C)C` [Compound 15], the negative logarithm of the IC50 (pIC50) in test [1] was 7.38. In addition, the 50% growth inhibitory concentration (GI50) in test [2] (setting [3]) stood at 44 nM.

For the molecule `CCN(C(=O)c1cc(F)ccc1Oc1nncnc1N1CC2(CCN(CC3CCN(C(=O)c4cnn(C)c4)CC3)CC2)C1)C(C)C` [Compound 16], in test [1], the negative logarithm of the IC50 (pIC50) was 7.12. The GI50 in test [2] (setting [3]) came to 113 nM.

Take `CCN(C(=O)c1cc(F)ccc1Oc1nncnc1N1CC2(CCN(Cc3ccc(NC(=O)CC#N)cc3C)CC2)C1)C(C)C` [Compound 17]: in test [1], the pIC50 is 7.31. The 50% growth inhibitory concentration (GI50) in test [2] (setting [3]) turned out to be 50 nM.

Consider `C=CC(=O)N1CC(C(=O)N2CCC(CN3CCC4(CC3)CN(c3ncnnc3Oc3ccc(F)cc3C(=O)N(CC)C(C)C)C4)CC2)C1` [Compound 18, 2-((5-(7-((1-(1-acryloylazetidine-3-carbonyl)piperidin-4-yl)methyl)-2,7-diazaspiro[3.5]nonan-2-yl)-1,2,4-triazin-6-yl)oxy)-N-ethyl-5-fluoro-N-isopropylbenzamide], for which the pIC50 in test [1] is 7.84. The same molecule yielded a GI50 in test [2] of 12 nM.

Molecule `CCN(C(=O)c1cc(F)ccc1Oc1nncnc1N1CC2(CCN(CC3CCN(C(=O)C4(C(=O)N(C)C)CC4)CC3)CC2)C1)C(C)C` [Compound 19, 2-((5-(7-((1-(1-(dimethylcarbamoyl)cyclopropane-1-carbonyl)piperidin-4-yl)methyl)-2,7-diazaspiro[3.5]nonan-2-yl)-1,2,4-triazin-6-yl)oxy)-N-ethyl-5-fluoro-N-isopropylbenzamide] yielded a GI50 in test [2] of 667 nM.

For the molecule `C=CC(=O)N1CCC(CN2CCC3(CC2)CN(c2ncnnc2Oc2ccc(F)cc2C(=O)N(CC)C(C)C)C3)CC1` [Compound 20, 2-((5-(7-((1-acryloylpiperidin-4-yl)methyl)-2,7-diazaspiro[3.5]nonan-2-yl)-1,2,4-triazin-6-yl)oxy)-N-ethyl-5-fluoro-N-isopropylbenzamide], in test [1], the pIC50 is 7.01. Further, in test [2] (setting [3]), the 50% growth inhibitory concentration (GI50) was determined as 58 nM.

For `CCN(C(=O)c1cc(F)ccc1Oc1nncnc1N1CC2(CCN(CC3CCN(C(=O)C(F)(F)F)CC3)CC2)C1)C(C)C` [Compound 21], the pIC50 in test [1] is 7.01. For the same molecule, the GI50 in test [2] (setting [3]) worked out at 116 nM.

With `CCN(C(=O)c1cc(F)ccc1Oc1nncnc1N1CC2(CCN(CC3CCN(S(C)(=O)=O)CC3)CC2)C1)C(C)C` [Compound 22], in test [1], the pIC50 is 6.95. In addition, the 50% growth inhibitory concentration (GI50) in test [2] (setting [3]) stood at 87 nM.

For the molecule `CCN(C(=O)c1cc(F)ccc1Oc1nncnc1N1CC2(CCN(Cc3ccc(NS(C)(=O)=O)cc3C)CC2)C1)C(C)C` [Compound 23], in test [1], the pIC50 is 7.63. Further, the GI50 in test [2] (setting [3]) is 56 nM.

Regarding `CCN(C(=O)c1cc(F)ccc1Oc1nncnc1N1CC2(CCN(CC3CCN(C(=O)N(C)C)CC3)CC2)C1)C(C)C` [Compound 24], the pIC50 in test [1] is 7.64. The GI50 in test [2] (setting [3]) was 54 nM.

Regarding `CCNC(=O)N1CCC(CN2CCC3(CC2)CN(c2ncnnc2Oc2ccc(F)cc2C(=O)N(CC)C(C)C)C3)CC1` [Compound 28], in test [2] (setting [3]), the GI50 came out at 9 nM.

Consider `CCN(C(=O)c1cc(F)ccc1Oc1nncnc1N1CC2(CCN(Cc3ccc4nccn4c3)CC2)C1)C(C)C` [Compound 63], for which the pIC50 in test [1] was under 6.00.

As to `CCN(C(=O)c1cc(F)ccc1Oc1nncnc1N1CC2(CCN(Cc3ccc4[nH]c(C(=O)NC)cc4c3)CC2)C1)C(C)C` [Compound 65], the pIC50 in test [1] is 7.08.

For the molecule `CCN(C(=O)c1cc(F)ccc1Oc1nncnc1N1CC2(CCN(CC3CCN(C4=NN5CCC(=O)N=C5C=C4)CC3)CC2)C1)C(C)C` [Compound 83], in test [1], the pIC50 was 6.65.

As to `COc1cc(N2CCC(CN3CCC4(CC3)CN(c3ncnnc3Oc3ccc(F)c5nn(C(C)C)cc35)C4)CC2)nnc1OC` [Compound 105], the pIC50 in test [1] was 6.32.

The pIC50 is the negative decadic logarithm of the IC50, by convention in mol/L. For orientation: GI50 means the concentration giving 50% growth inhibition.
